Measured values from ChEMBL document CHEMBL4118202, “Chiral analogues of (+)-cyclazosin as potent α1B-adrenoceptor selective antagonist” (Bioorg Med Chem, 2018).
pKi: −log10 of the molar value.

How the values were obtained:
[1] = molecular target: T1, Alpha-1B adrenergic receptor (Homo sapiens, UniProt P35368); assay: Binding affinity to alpha1B adrenergic receptor (unknown origin)
T1 sequence (P35368 whole entry): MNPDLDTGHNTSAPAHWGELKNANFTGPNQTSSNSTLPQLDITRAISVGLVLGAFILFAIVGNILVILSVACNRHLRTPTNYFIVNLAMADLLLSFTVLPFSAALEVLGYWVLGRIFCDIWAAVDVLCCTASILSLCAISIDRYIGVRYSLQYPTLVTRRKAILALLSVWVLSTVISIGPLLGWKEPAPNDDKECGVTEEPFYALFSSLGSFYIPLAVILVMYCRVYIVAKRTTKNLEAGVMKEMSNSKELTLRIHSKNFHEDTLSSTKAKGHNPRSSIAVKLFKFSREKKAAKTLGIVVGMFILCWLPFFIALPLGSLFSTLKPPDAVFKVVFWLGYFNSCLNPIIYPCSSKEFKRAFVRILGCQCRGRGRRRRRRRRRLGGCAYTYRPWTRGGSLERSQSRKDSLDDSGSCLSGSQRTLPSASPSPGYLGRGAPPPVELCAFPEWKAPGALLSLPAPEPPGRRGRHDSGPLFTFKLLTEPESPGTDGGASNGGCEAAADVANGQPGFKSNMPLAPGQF

[2] = organism: Homo sapiens; assay: Selectivity ratio of compound effect for alpha1B adrenergic receptor (unknown origin) to compound effect for alpha1D adrenergic receptor (unknown origin)

pKi [1]: 8.85 | Selectivity ratio [2]: 3
Compound: COc1cc2nc(N3CCN(C(=O)C4COc5ccccc5O4)[C@H]4CCCC[C@H]43)nc(N)c2cc1OC (single isomer, unassigned; (-)) [CYCLODOXAZOSIN]
